Measurements: patent US10329272B2 (priority 2015, dated 2019)

What was measured:
[1] = system: Botryotinia fuckeliana (Botrytis cinerea); assay: Botryotinia fuckeliana (Botrytis cinerea)/Liquid Culture (Gray Mould); type: cell-based; details: liquid culture, growth inhibition photometrically 3-4 days after application, compared to untreated control
Protocol: Biological Examples Botryotinia fuckeliana (Botrytis cinerea)/Liquid Culture (Gray Mould)
(§1) Conidia of the fungus from cryogenic storage are directly mixed into nutrient broth (Vogels broth). After placing a (DMSO) solution of test compound into a microtiter plate (96-well format), the nutrient broth containing the fungal spores is added. The test plates are incubated at 24° C. and the inhibition of growth is determined photometrically 3-4 days after application.

[2] = system: Glomerella lagenarium (Colletotrichum lagenarium); assay: Glomerella Lagenarium (Colletotrichum Lagenarium)/Liquid Culture (Anthracnose); type: cell-based; details: Colletotrichum orbiculare, liquid culture, growth inhibition photometrically 3-4 days after application, compared to untreated control
Protocol: Glomerella Lagenarium (Colletotrichum Lagenarium)/Liquid Culture (Anthracnose)
as §1, with “(PDB potato dextrose” for “(Vogels”, “measured” for “determined”

[3] = system: Gaeumannomyces graminis; assay: Gaeumannomyces Graminis/Liquid Culture (Take-all of Cereals); type: cell-based; details: liquid culture, growth inhibition photometrically 4-5 days after application, compared to untreated control
Protocol: Gaeumannomyces Graminis/Liquid Culture (Take-all of Cereals)
as §1, with “Mycelial fragments of” for “Conidia of”, “storage were” for “storage are”, “broth (PDB potato dextrose” for “broth (Vogels”, “photometrically 4-5” for “photometrically 3-4”

[4] = system: Monographella nivalis (Microdochium nivale); assay: Monographella Nivalis (Microdochium Nivale)/Liquid Culture (Foot Rot Cereals); type: cell-based; details: liquid culture, growth inhibition photometrically 4-5 days after application, compared to untreated control
Protocol: Monographella Nivalis (Microdochium Nivale)/Liquid Culture (Foot Rot Cereals)
as §1, with “(PDB potato dextrose” for “(Vogels”, “4-5” for “3-4”

[5] = system: Magnaporthe grisea (Pyricularia oryzae); assay: microbe, parasite or virus in culture; type: cell-based; details: read-out: control of Magnaporthe grisea
[6] = system: Fusarium culmorum; assay: microbe, parasite or virus in culture; type: cell-based; details: read-out: control of Fusarium culmorum
[7] = system: Sclerotinia sclerotiorum; assay: Sclerotinia sclerotiorum/Liquid Culture (Cottony Rot); type: cell-based; details: liquid culture, growth inhibition photometrically 3-4 days after application, compared to untreated control
Protocol: Sclerotinia sclerotiorum/Liquid Culture (Cottony Rot)
as §1, with “Mycelia fragments of a newly grown liquid culture” for “Conidia”, “fungus” for “fungus from cryogenic storage”, “format)” for “format),”, “material” for “spores”

[8] = system: Mycosphaerella graminicola (Septoria tritici); assay: microbe, parasite or virus in culture; type: cell-based; details: Zymoseptoria tritici, read-out: control of Mycosphaerella graminicola

## Cn1nc2c(Br)cccc2c1C1=NC(C)(C)C(O)c2ccccc21 (stereo not drawn)
other
  melting point: 215 to 217 °C

## Cc1cccc2c(C3=NC(C)(C)C(F)(F)c4c(F)cccc43)n(C)nc12 [Compound E-20, 1-(2,7-dimethylindazol-3-yl)-4,4,5-trifluoro-3,3-dimethyl-isoquinoline]
[1]
  inhibition of growth at 20 ppm: ≥ 80%
[2]
  inhibition of growth at 20 ppm: ≥ 80%
[3]
  inhibition of growth at 20 ppm: ≥ 80%
[4]
  inhibition of growth at 20 ppm: ≥ 80%
[5]
  inhibition of growth at 20 ppm: ≥ 80%
other
  melting point: 164 to 165 °C

## Cc1cccc2c(C3=NC(C)(C)C(F)(F)c4ccccc43)n(C)nc12 [Compound E-11, 1-(2,7-dimethylindazol-3-yl)-4,4-difluoro-3,3-dimethyl-isoquinoline]
[1]
  inhibition of growth at 20 ppm: ≥ 80%
[2]
  inhibition of growth at 20 ppm: ≥ 80%
[6]
  inhibition of growth at 20 ppm: ≥ 80%
[4]
  inhibition of growth at 20 ppm: ≥ 80%
[5]
  inhibition of growth at 20 ppm: ≥ 80%
[7]
  inhibition of growth at 20 ppm: ≥ 80%
other
  melting point: 136 to 137 °C

## Cc1c(Cl)ccc2c(C3=NC(C)(C)C(C)(C)c4c(F)cccc43)n(C)nc12 [Compound E-26, 1-(6-chloro-2,7-dimethyl-indazol-3-yl)-5-fluoro-3,3,4,4-tetramethyl-isoquinoline]
[1]
  inhibition of growth at 20 ppm: ≥ 80%
[2]
  inhibition of growth at 20 ppm: ≥ 80%
[4]
  inhibition of growth at 20 ppm: ≥ 80%
[5]
  inhibition of growth at 20 ppm: ≥ 80%
[7]
  inhibition of growth at 20 ppm: ≥ 80%
other
  melting point: 136 to 142 °C

## Cc1ccc2c(C3=NC(C)(C)C(F)(F)c4ccccc43)n(C)nc2c1C [Compound E-25, 4,4-difluoro-3,3-dimethyl-1-(2,6,7-trimethylindazol-3-yl)isoquinoline]
[1]
  inhibition of growth at 20 ppm: ≥ 80%
[2]
  inhibition of growth at 20 ppm: ≥ 80%
[6]
  inhibition of growth at 20 ppm: ≥ 80%
[4]
  inhibition of growth at 20 ppm: ≥ 80%
[5]
  inhibition of growth at 20 ppm: ≥ 80%
[7]
  inhibition of growth at 20 ppm: ≥ 80%
other
  melting point: 154 to 157 °C

## Cn1nc2c(Br)cccc2c1C1=NC(C)(C)C(=O)c2ccccc21 [Compound E-6, 1-(7-bromo-2-methyl-indazol-3-yl)-3,3-dimethyl-isoquinolin-4-one]
[1]
  inhibition of growth at 20 ppm: ≥ 80%
[4]
  inhibition of growth at 20 ppm: ≥ 80%
[5]
  inhibition of growth at 20 ppm: ≥ 80%

## Cc1ccc2c(C3=NC(C)(C)C(=O)c4ccccc43)n(C)nc2c1C [Compound E-29, 3,3-dimethyl-1-(2,6,7-trimethylindazol-3-yl)isoquinolin-4-one]
[1]
  inhibition of growth at 20 ppm: ≥ 80%
[2]
  inhibition of growth at 20 ppm: ≥ 80%
[6]
  inhibition of growth at 20 ppm: ≥ 80%
[4]
  inhibition of growth at 20 ppm: ≥ 80%
[5]
  inhibition of growth at 20 ppm: ≥ 80%
[7]
  inhibition of growth at 20 ppm: ≥ 80%
other
  melting point: 174 to 177 °C

## Cn1nc2c(Br)cccc2c1C1=NC(C)(C)C(F)(F)c2ccccc21 [Compound E-10, 1-(7-bromo-2-methyl-indazol-3-yl)-4,4-difluoro-3,3-dimethyl-isoquinoline]
[1]
  inhibition of growth at 20 ppm: ≥ 80%
[2]
  inhibition of growth at 20 ppm: ≥ 80%
[3]
  inhibition of growth at 20 ppm: ≥ 80%
[4]
  inhibition of growth at 20 ppm: ≥ 80%
[5]
  inhibition of growth at 20 ppm: ≥ 80%
[7]
  inhibition of growth at 20 ppm: ≥ 80%
other
  melting point: 157 to 158 °C

## Cn1nc2c(Cl)c(Cl)ccc2c1C1=NC(C)(C)Cc2ccccc21 [Compound E-24, 1-(6,7-dichloro-2-methyl-indazol-3-yl)-3,3-dimethyl-4H-isoquinoline]
[1]
  inhibition of growth at 20 ppm: ≥ 80%
other
  melting point: 197 to 199 °C

## Cc1cccc2c(C3=NC(C)(C)C(C)(C)c4c(F)cccc43)snc12 [Compound E-32, 3-(5-fluoro-3,3,4,4-tetramethyl-1-isoquinolyl)-7-methyl-2,1-benzothiazole]
[1]
  inhibition of growth at 20 ppm: ≥ 80%
[2]
  inhibition of growth at 20 ppm: ≥ 80%
[6]
  inhibition of growth at 20 ppm: ≥ 80%
[3]
  inhibition of growth at 20 ppm: ≥ 80%
[4]
  inhibition of growth at 20 ppm: ≥ 80%
[5]
  inhibition of growth at 20 ppm: ≥ 80%
[7]
  inhibition of growth at 20 ppm: ≥ 80%
other
  melting point: 96 to 98 °C

## Cn1nc2cc(F)ccc2c1C1=NC(C)(C)C(C)(C)c2c(F)cccc21 [Compound E-21, 5-fluoro-1-(6-fluoro-2-methyl-indazol-3-yl)-3,3,4,4-tetramethyl-isoquinoline]
[1]
  inhibition of growth at 20 ppm: ≥ 80%
[2]
  inhibition of growth at 20 ppm: ≥ 80%
[6]
  inhibition of growth at 20 ppm: ≥ 80%
[4]
  inhibition of growth at 20 ppm: ≥ 80%
[5]
  inhibition of growth at 20 ppm: ≥ 80%
other
  melting point: 131 to 133 °C

## Cn1nc2c(Br)cccc2c1C1=NC(C)(C)C(C)(C)c2c(F)cccc21 [Compound E-8, 1-(7-bromo-2-methyl-indazol-3-yl)-5-fluoro-3,3,4,4-tetramethyl-isoquinoline]
[1]
  inhibition of growth at 20 ppm: ≥ 80%
[2]
  inhibition of growth at 20 ppm: ≥ 80%
[4]
  inhibition of growth at 20 ppm: ≥ 80%
[5]
  inhibition of growth at 20 ppm: ≥ 80%
[8]
  inhibition of growth at 20 ppm: ≥ 80%
[7]
  inhibition of growth at 20 ppm: ≥ 80%

## Cn1nc2c(Br)cccc2c1C1=NC(C)(C)C(=O)c2c(F)cccc21 [Compound E-18, 1-(7-bromo-2-methyl-indazol-3-yl)-5-fluoro-3,3-dimethyl-isoquinolin-4-one]
[4]
  inhibition of growth at 20 ppm: ≥ 80%
other
  melting point: 260 to 261 °C

## Cn1nc2ccccc2c1C1=NC(C)(C)C(=O)c2ccccc21
other
  melting point: 169 to 170 °C

## CC1(C)N=C(c2onc3c(Cl)cccc23)c2ccccc2C1(F)F [Compound E-31, 7-chloro-3-(4,4-difluoro-3,3-dimethyl-1-isoquinolyl)-2,1-benzoxazole]
[1]
  inhibition of growth at 20 ppm: ≥ 80%
[2]
  inhibition of growth at 20 ppm: ≥ 80%
[3]
  inhibition of growth at 20 ppm: ≥ 80%
[5]
  inhibition of growth at 20 ppm: ≥ 80%
[7]
  inhibition of growth at 20 ppm: ≥ 80%

## Cn1nc2c(Br)cccc2c1C1=NC(C)(C)C(O)c2c(F)cccc21 (stereo not drawn)
other
  melting point: 103 to 105 °C

## Cn1nc2c(Br)cccc2c1C1=NC(C)(C)Cc2c(F)cccc21 [Compound E-15, 1-(7-bromo-2-methyl-indazol-3-yl)-5-fluoro-3,3-dimethyl-4H-isoquinoline]
[1]
  inhibition of growth at 20 ppm: ≥ 80%
[4]
  inhibition of growth at 20 ppm: ≥ 80%
[5]
  inhibition of growth at 20 ppm: ≥ 80%
other
  melting point: 168 to 169 °C

## Cn1nc2c(Br)cccc2c1C1=NC(C)(C)Cc2ccccc21 [Compound E-5, 1-(7-bromo-2-methyl-indazol-3-yl)-3,3-dimethyl-4H-isoquinoline]
[1]
  inhibition of growth at 20 ppm: ≥ 80%
[4]
  inhibition of growth at 20 ppm: ≥ 80%
[5]
  inhibition of growth at 20 ppm: ≥ 80%
[8]
  inhibition of growth at 20 ppm: ≥ 80%
[7]
  inhibition of growth at 20 ppm: ≥ 80%
other
  melting point: 161 to 162 °C

## Cn1nc2ccccc2c1C1=NC(C)(C)C(Br)c2ccccc21 (stereo not drawn)
other
  melting point: 165 to 166 °C

## Cn1nc2c(Br)cccc2c1C1=NC(C)(C)C(F)(F)c2c(F)cccc21 [Compound E-19, 1-(7-bromo-2-methyl-indazol-3-yl)-4,4,5-trifluoro-3,3-dimethyl-isoquinoline]
[1]
  inhibition of growth at 20 ppm: ≥ 80%
[2]
  inhibition of growth at 20 ppm: ≥ 80%
[4]
  inhibition of growth at 20 ppm: ≥ 80%
[5]
  inhibition of growth at 20 ppm: ≥ 80%
other
  melting point: 198 to 199 °C

## Cn1nc2ccccc2c1C1=NC(C)(C)Cc2ccccc21 [Compound E-2, 3,3-dimethyl-1-(2-methylindazol-3-yl)-4H-isoquinoline]
[1]
  inhibition of growth at 20 ppm: ≥ 80%
[2]
  inhibition of growth at 20 ppm: ≥ 80%
[4]
  inhibition of growth at 20 ppm: ≥ 80%
[5]
  inhibition of growth at 20 ppm: ≥ 80%
[7]
  inhibition of growth at 20 ppm: ≥ 80%
other
  melting point: 107 to 108 °C

## CC1(C)N=C(c2n[nH]c3ccccc23)c2cccc(F)c2C1(C)C [Compound E-14, 5-fluoro-1-(1H-indazol-3-yl)-3,3,4,4-tetramethyl-isoquinoline]
[1]
  inhibition of growth at 20 ppm: ≥ 80%
other
  melting point: 174 to 177 °C

## Cn1nc2c(Br)cccc2c1C1=NC(C)(C)C(Br)c2ccccc21 (stereo not drawn) [Compound E-7, 4-bromo-1-(7-bromo-2-methyl-indazol-3-yl)-3,3-dimethyl-4H-isoquinoline]
[1]
  inhibition of growth at 20 ppm: ≥ 80%

## Cn1nc2ccccc2c1C1=NC(C)(C)C(F)(F)c2ccccc21 [Compound E-13, 4,4-difluoro-3,3-dimethyl-1-(2-methylindazol-3-yl)isoquinoline]
[1]
  inhibition of growth at 20 ppm: ≥ 80%
[2]
  inhibition of growth at 20 ppm: ≥ 80%
[4]
  inhibition of growth at 20 ppm: ≥ 80%
[5]
  inhibition of growth at 20 ppm: ≥ 80%
[7]
  inhibition of growth at 20 ppm: ≥ 80%
